From US20210196702A1, “TREATMENT OF HYPERKINETIC MOVEMENT DISORDERS” (Neurocrine Biosciences, Inc., priority 2014, published 2021)
Where two headings read alike, the source gives them in different places.

What was measured:
TD subjects [1] = assay: Phase 2 clinical study of NBI-98854: exposure-AIMS (video-rated) analysis; assay type: in vivo, human; conditions: for Mean AIMS reduction - % (week 6 vs baseline): regardless of NBI-98854 dose
From the text: Methods for determining the effectiveness of a therapeutic for treating a hyperkinetic disorder are routinely practiced in the art by a person skilled in the medical and clinical arts. By way of example, a subject with a hyperkinetic disorder may be diagnosed, monitored, and evaluated by the Abnormal Involuntary Movement Scale (AIMS). The AIMS is a structured neurological examination that was developed in 1976 and has been used extensively in movement disorder assessments. It consists of seven distinct ratings of regional involuntary body movements that are scored on a zero to four scale with zero being rated as none and four being rated as severe.
(§1) Observed exposure and Abnormal Involuntary Movement Scale (AIMS) derived from video ratings from a Phase 2 clinical study of (S)-2-amino-3-methyl-butyric acid (2R,3R,11bR)-3-isobutyl-9,10-dimethoxy-1,3,4,6,7,11b-hexahydro-2H-pyrido[2,1-a]isoquinolin-2-yl ester were employed for development of the exposure-response relationship. A total of […] were randomized to placebo (N=41) and (S)-2-amino-3-methyl-butyric acid (2R,3R,11bR)-3-isobutyl-9,10-dimethoxy-1,3,4,6,7,11b-hexahydro-2H-pyrido[2,1-a]isoquinolin-2-yl ester (either 25 mg, 50 mg or 75 mg, N=45). Thirty-eight patients receiving (S)-2-amino-3-methyl-butyric acid (2R,3R,11bR)-3-isobutyl-9,10-dimethoxy-1,3,4,6,7,11b-hexahydro-2H-pyrido[2,1-a]isoquinolin-2-yl ester had PK data available for the metabolite [+]α-dihydrotetrabenazine. […] AIMS derived from video rating was available at baseline and week 6 in each patient. Percent change from baseline at week 6 served as the response metric. [+]α-Dihydrotetrabenazine concentration at week 6 sampled at about the Tmax was available in each patient and this Cmax steady state (ss) was used as the exposure measure.
(§2) The patients who had quantifiable concentrations of [+]α-dihydrotetrabenazine were divided into quartiles based upon the week 6 Cmax ss. The mean Cmax ss and mean AIMS reduction from baseline were calculated for each quartile.

[2] = Phase 2 clinical study: week 6 plasma concentration (Cmax ss) of [+]α-HTBZ; assay type: in vivo; conditions: human, NBI-98854 25, 50 or 75 mg, TD patients
From the text: (§3) Plasma concentrations of (+)α-HTBZ, (+)β-HTBZ, and compounds as disclosed herein may be measured by methods as described in Derangula et al, Biomedical Chromatography 2013 27(6): 792-801, Mehvar et al, […] 1987 15(2): 250-55 and generally by tandem mass spectroscopy.
as §1, §2

[3] = NBI-98854 multiple-dose cohort: plasma (+)α-HTBZ on day 8; assay type: in vivo, human; conditions: for half-life: read-out: apparent ti (half-life) of plasma concentration decline (converted)
Procedure: as §3
NBI-98854 was administered orally once daily at a dose of 50 mg or 100 mg for 8 days to patients in a multiple-dose cohort (n=13 for 50 mg dosage group; n=4 for 100 mg dosage group). Individual subject plasma concentration data for (+)α-HTBZ was collected at scheduled times post-dose (0 hr, 2 hr, 4 hr, 6 hr, 8 hr, 12 hr, 16 hr, 24 hr, 48 hr, 96 hr, and 120 hr) on day 8 and presented as mean plasma concentration data (linear scale) (see, FIG. 1). On Day 8, median time to Tmax for (+)α-HTBZ was approximately 4.0 hours for both doses.

[4] = cited from earlier work
TD subjects [5] = assay: Tolerability of repeated doses in TD subjects; assay type: in vivo, human; conditions: repeated doses from 12.5 mg to 100 mg per day
Procedure: Efficacy is related to the concentrations of the active metabolite [+]α-dihydrotetrabenazine. […] Exposures above 60 ng/mL in plasma afford little incremental benefit but increase the risk of adverse events reflecting extension of VMAT2 pharmacology. Exposures below 15 ng/mL are suboptimal across the general TD population.

patients exposed to drug = conditions: patients exposed to metoclopramide (Rao et al 2010); cited from earlier work
[6] = active metabolite after NBI-98854, TD population

For `COc1cc2c(cc1OC)[C@H]1C[C@@H](O)[C@H](CC(C)C)CN1CC2` [(+)α-HTBZ, (2R, 3R, 11bR)-3-isobutyl-9,10-dimethoxy-1,3,4,6,7,11b-hexahydro-2H-pyrido[2,1-a]isoquinolin-2-ol], the “Appropriate target concentration in plasma (exposure-response analysis)” value (TD subjects [1]; [6]) was 30 ng/mL, the “Plasma exposures affording little incremental benefit but increased risk of adverse events” value (TD subjects [1]; [6]) was “above 60 ng/mL” and the “Plasma exposures that are suboptimal across the general TD population” value (TD subjects [1]; [6]) was “below 15 ng/mL”. For the same compound, the Cmax ([2]; 1st quartile by week 6 Cmax ss) was ~15 ng/mL, the Cmax ([2]; 2nd quartile by week 6 Cmax ss) was ~29 ng/mL and the Cmax ([2]; 3rd quartile by week 6 Cmax ss) was 42 ng/mL. The Cmax ([2]; 4th quartile by week 6 Cmax ss) was 93 ng/mL, the “Plasma concentration maintained above threshold” value ([3]; NBI-98854 50 mg once daily, over a period of about 8 to about 24 hours) was > 15 ng/mL and the half-life ([3]; human, plasma, po, NBI-98854 50 mg orally once daily) was ~21 h. It also gave a half-life ([3]; human, plasma, po, NBI-98854 100 mg orally once daily) of ~19 h and a Tmax ([3]; human, plasma, po, NBI-98854 orally once daily, both doses (50 mg and 100 mg), read-out: median time to Tmax) of ~4 h.

For `COc1cc2c(cc1OC)C1CC(O)C(CC(C)C)CN1CC2` (centres unmarked) [HTBZ, 3-isobutyl-9,10-dimethoxy-1,3,4,6,7,11b-hexahydro-2H-pyrido[2,1-a]isoquinolin-2-ol], the half-life ([4]; HTBZ formed from tetrabenazine in humans) is given as “short”.

With `COc1cc2c(cc1OC)[C@H]1C[C@@H](OC(=O)[C@@H](N)C(C)C)[C@H](CC(C)C)CN1CC2` [NBI-98854, (S)-2-amino-3-methyl-butyric acid (2R,3R,11bR)-3-isobutyl-9,10-dimethoxy-1,3,4,6,7,11b-hexahydro-2H-pyrido[2,1-a]isoquinolin-2-yl ester] the “Mean AIMS reduction - % (week 6 vs baseline)” value (TD subjects [1]; 3rd quartile of [+]α-HTBZ Cmax ss) was 65%, the “Mean AIMS reduction - % (week 6 vs baseline)” value (TD subjects [1]; 4th quartile of [+]α-HTBZ Cmax ss) was 52% and the Tolerability (TD subjects [5]) was “generally well tolerated”.

For `CCN(CC)CCNC(=O)c1cc(Cl)c(N)cc1OC` [metoclopramide], the “Occurrence of drug-induced TD in patients exposed to drug” value (patients exposed to drug) is given as < 1%.

For `COc1cc2c(cc1OC)C1CC(=O)C(CC(C)C)CN1CC2` (centres unmarked) [tetrabenazine, 3-isobutyl-9,10-dimethoxy-1,3,4,6,7,11b-hexahydro-2H-pyrido[2,1-a]isoquinolin-2-one], the “Systemic exposure to parent drug” value ([4]; in humans, rapidly metabolized to HTBZ) is listed as “virtually negligible”.
